Experimental data from patent US6770122B2, “Copper deposition using copper formate complexes” (E. I. du Pont de Nemours and Company, priority 2001, dated 2004).

Assays:
[1] = Protocol: A common technique used in dissolving metal complexes in supercritical carbon dioxide is to add a co-solvent (Cross et al.). The requirements of a co-solvent have been defined (Cross et al.). Methanol and other alcohols are commonly used. […] In these measurements, the complex was dissolved in 0.25-1 mL of methanol or 1-butanol and then shaken with 5-10 mL hexane; solubility was indicated by formation of a homogeneous blue solution. Alcohols such as methanol and 1-butanol are totally miscible with supercritical carbon dioxide at ambient temperatures and high pressure (Cross et al). Between 2 to 5% cosolvent is typically used in order to retain supercritical properties of the solvent at reasonable temperatures and pressures.
[2] = Solubility in hexane, judged by blue colour of the solution; conditions: no co-solvent, qualitative

**Q.** Which “solubility in hexane with co-solvent (or supercritical carbon dioxide with co-solvent)” value (shortened to “solubility in hexane with co-solvent”) [1] does the source give for `CCCCC(CC)Cn1cc(C)nc1CC` (centres unmarked) [1-(2-ethylhexyl)-2-ethyl-4-methylimidazole] here?
**A.** 1-(2-ethylhexyl)-2-ethyl-4-methyl-

**Q.** Which “solubility in hexane with co-solvent” value [1] does the source give for `CCCCC(CC)Cn1cccn1` (centres unmarked) [1-(2-ethylhexyl)pyrazole] here?
**A.** 1-(2-ethylhexyl)pyrazole

**Q.** Which “solubility in hexane with co-solvent” value [1] does the source give for `CC(C)(C)c1ccncc1` [4-t-butylpyridine] here?
**A.** 4-t-butylpyridine

**Q.** Which “solubility in hexane (blue color of solution)” value [2] does the source give for “Cu(1-octyl-4-ethyl-2-methylimidazole)2(HCOO)2H2O” here?
**A.** dissolves in hexane to yield a blue solution

**Q.** What about the “solubility in hexane (blue color of solution)” value ([2]; listed as Cu(1-octyl-4-ethyl-2-methylimidazole)2(HCOO)2H2O) of the same molecule?
**A.** soluble in hexane
